From patent US20050187161A1, “Biopanning as an approach to study the pathogenesis of and produce novel treatment modalities for invasive Aspergillosis” (priority 2003, published 2005)
Ends that are not written are not given here.

Legend:
A. fumigatus hyphae [1] = conditions: Bowman et al., 2002; cited from earlier work
Aspergillus = conditions: Espinel-Ingroff, 1998; cited from earlier work
IA = conditions: Abruzzo et al., 1997; cited from earlier work
A. fumigatus hyphae [2] = assay: BRASIL selection of CX7C phage display library on A. fumigatus hyphae; assay type: binding, Aspergillus fumigatus; conditions: after 5 selection rounds, clones with the motif / 40 random phage clones sequenced
Experimental: (§1) To identify potential host ligands that bind on the surface of A. fumigatus conidia and hyphae, a phage display library (CX7C) for A. fumigatus conidia and hyphae binding ligands using BRASIL is screened. The Aspergillus fumigatus clinical isolate AF293 (currently being used in the Aspergillus sequencing project, provided kindly by Dr. D. Denning, Manchester, UK.) is plated on YAG plates at 37° C. for 3 days and conidia are collected. Conidia (suspensions of 10^4 conidia/ml) are incubated at 37° C. for 16-20 hours in liquid YAG medium to allow for germination to hyphae. Conidia or hyphae, collected as described earlier, were then incubated with 10^9 transducing units (TU) of CX7C phage display library (Arap et al., 2002). A phage-conidia/hyphae suspension in an upper aqueous phase is centrifuged through a non-miscible organic phase with an intermediate specific density. Upon optimized centrifugation conditions conidia or hyphae entered the lower organic phase and pellet at the bottom of the tube, carrying with them only the specifically bound phage (FIG. 10). Dibutylphtalate:Cyclohexane ratio of the organic phase is preferably 6:1. Hyphae needed 100,000 g for pelleting as compared to 10,000 g for conidia (FIG. 10). The conidia/hyphae pellet is then recovered (after freezing, FIG. 10), and the phage is rescued by infection of E. coli K91kan bacteria (FIG. 1). Amplified phage was then used for subsequent rounds of selection (FIG. 10)
(§2) Infected E. coli K91Kan were incubated overnight in LB medium with kanamycin as selection marker (70 μg/ml), tetracycline that served as inducer of phage multiplication (40 μg/ml, the phage also contains the tetracycline resistance gene tetR), and voriconazole for suppression of conidial and hyphal growth (4 μg/ml). The next day, the phage was first separated from E. coli by centrifuigation, recovered using PEG/NaCl, and finally tittrated (to 109 TU units/μl) in order to be used in subsequent selection rounds.
(§3) After 4 rounds of selection for conidia 5 rounds for hyphae, peptide-inserts of 40 random phage clones (each for conidia and hyphae) were sequenced and analyzed for peptide sequences according to enrichment and by ClustalW sequence alignment. Selected motifs were then used to search non-redundant protein databanks.

A. fumigatus conidia = assay: BRASIL selection of CX7C phage display library on A. fumigatus conidia; assay type: binding, Aspergillus fumigatus; conditions: after 4 selection rounds, clones with the motif / 40 random phage clones sequenced
Experimental: as §1, §2, §3

AF293 conidia = assay: Inhibition of WGHSRDE phage binding on AF293 conidia by synthetic peptide; parameters: species or system Aspergillus fumigatus; conditions: FIG. 13; synthetic peptide 0.1, 1, 10 and 100 μM
Experimental: To validate that the CWGHSRDEC (SEQ ID NO:1) phage is mediating specific binding to AF293 conidia, the CWGHSRDEC (SEQ ID NO:) phage and the AF293 conidia are co-incubated in the presence of increasing concentrations of the CWGHSRDEC (SEQ ID NO: 1) peptide. A decrease in the amount of CWGHSRDEC (SEQ ID NO: 1) phage binding on the surface of AF293 conidia after adding the CWGHSRDEC (SEQ ID NO:1) peptide indicates the CWGHSRDEC (SEQ ID NO:1) peptide binds to the surface of AF293 conidia thus preventing the corresponding phage from binding on these sites.
Protocol: Increasing concentrations of the synthetic CWGHSRDEC (SEQ ID NO:1) peptide or a control scramble peptide (e.g., CLLSATPSC (SEQ ID NO:)) (0.1, 1, 10 and 100 μM) is incubated with 200 μl of a 5×10^8 AF293 conidia/ml solution in 1% BSA/PBS for 1 hour at room temperature and 10^8 TU of CWGHSRDEC (SEQ ID NO:1) phage is added and incubated for 2 hours at room temperature. The conidia/phage suspension is centrifuged over an organic phase for 10 min at 10,000 g. Pelleted conidia/phage is used for k91kan infection. The BRASIL method is followed as previously mentioned. A potential decrease in the phage binding on AF293 conidia as a function of the addition of the CWGHSRDEC (SEQ ID NO:1) peptide is graphed as shown in FIG. 13 (Giordano et al, 2001): […]

Compound: CC[C@H](C)C[C@H](C)CCCCCCCCC(=O)N[C@H]1C[C@@H](O)[C@@H](NCCN)NC(=O)[C@@H]2[C@@H](O)CCN2C(=O)[C@H]([C@H](O)CCN)NC(=O)[C@H]([C@H](O)[C@@H](O)c2ccc(O)cc2)NC(=O)[C@@H]2C[C@@H](O)CN2C(=O)[C@H]([C@@H](C)O)NC1=O [CAS, Caspofungin]
- viability of growing A. fumigatus hyphae by DiBAC staining (A. fumigatus hyphae [1]): kills the apical tips of hyphae
- Aspergillus growth in vitro (Aspergillus): growth reduction
- efficacy in animal models of IA (IA): shown efficacy

Compound: DLTHVSA (listed as Aspergillus fumigatus)
- Times identified (A. fumigatus hyphae [2]): 1/40

Compound: ELLRRGGS (ELRRGGS; listed as Aspergillus fumigatus)
- Times identified (A. fumigatus conidia): 2/40

Compound: GARASGS (listed as Aspergillus fumigatus)
- Times identified (A. fumigatus conidia): 4/40

Compound: GGRLGPF (listed as Aspergillus fumigatus)
- Times identified (A. fumigatus hyphae [2]): 2/40

Compound: GGWGPGS (listed as Aspergillus fumigatus)
- Times identified (A. fumigatus conidia): 2/40

Compound: GTSRWLR (listed as Aspergillus fumigatus)
- Times identified (A. fumigatus hyphae [2]): 1/40

Compound: IGRAPQM (listed as Aspergillus fumigatus)
- Times identified (A. fumigatus conidia): 2/40

Compound: ISTFARG (listed as Aspergillus fumigatus)
- Times identified (A. fumigatus hyphae [2]): 1/40

Compound: LLSATPS (listed as Aspergillus fumigatus)
- Times identified (A. fumigatus conidia): 8/40

Compound: NPGYWGN (listed as Aspergillus fumigatus)
- Times identified (A. fumigatus hyphae [2]): 1/40

Compound: SLVRGGT (listed as Aspergillus fumigatus)
- Times identified (A. fumigatus conidia): 2/40

Compound: SSGDRTA (listed as Aspergillus fumigatus)
- Times identified (A. fumigatus conidia): 2/40

Compound: VGVEYRT (listed as Aspergillus fumigatus)
- Times identified (A. fumigatus hyphae [2]): 1/40

Compound: VVGSADG (listed as Aspergillus fumigatus)
- Times identified (A. fumigatus hyphae [2]): 1/40

Compound: WGHSRDE (not fully specified (N-terminus, C-terminus, bridges); listed as Aspergillus fumigatus) [synthetic peptide used as …]
- Times identified (A. fumigatus conidia): 12/40
- inhibition of WGHSRDE phage binding on AF293 conidia (AF293 conidia): specific inhibition

Compound: XCDSSVS (not fully specified; X: residue not identified in the source; listed as Aspergillus fumigatus)
- Times identified (A. fumigatus hyphae [2]): 1/40
